Reference: patent publication US6069146A, “Halimide, a cytotoxic marine natural product, and derivatives thereof” (The Regents of the University of California, priority 1998, dated 2000)
Like-named read-outs stand apart in the source and are kept apart here.

Experiments:
[1] = test system: human colon carcinoma cell line HCT116; assay: MTS cytotoxicity assay, HCT116; format: cell-based; conditions: HCT-116, HCT116, 72 hours, read-out: IC50, inhibition of cell proliferation
Experimental: (§1) The cytotoxicity of halimide was assessed in vitro against the human colon carcinoma cell line HCT116 and the human ovarian carcinoma cell line A2780 by MTS assay (Ribs et al., Mol. Biol. Cell 3:184a (1992), which is incorporated herein by reference). Cells were plated at 4,000 cells/well in 96 well microliter plates and, after 24 hours, halimide (dissolved in DMSO) was added and serially diluted. The cells were incubated with the compound at 37° C. for 72 hours, then the tetrazolium dye MTS was added to a final concentration of 333 μg/ml and the electron coupling agent phenazine methosulfate was added to a final concentration of 25 μM. A dehydrogenase enzyme in live cells reduces the MTS to a form that absorbs light at […], which can be quantitated spectrophotometrically.
(§2) Assay results are expressed as an IC50, which is the drug concentration required to inhibit cell proliferation by 50% compared to growth of untreated control cells.

[2] = test system: 2X cycled bovine brain tubulin; assay: Inhibition of tubulin polymerization (2X cycled bovine brain tubulin, GTP); format: biochemical
Excerpt: Thus, the compounds of the invention have an activity similar to vinca alkaloids, but are chemically distinct from the vinca alkaloids.

[3] = test system: human ovarian carcinoma cell line A2780; assay: MTS cytotoxicity assay, A2780; format: cell-based; conditions: read-out: IC50, inhibition of cell proliferation
Experimental: as §1, §2

[4] = test system: carcinoma cells; assay: Cell cycle arrest of carcinoma cells; format: cell-based; conditions: 5 μM halimide
Excerpt: As used herein, the term "premitotic stage," when used in reference to cells, means that the cells have not attained the anaphase stage of mitosis and, therefore, have not yet begun to divide. […] Thus, the invention provides a method of reducing or inhibiting the ability of the cells to proceed through mitosis and, therefore, proliferate, by contacting the cells with a compound of the invention.

[5] = test system: dividing cells (mitotic spindle); assay: Mitotic spindle / cell division in dividing cells; format: cell-based; conditions: exposure of dividing cells
Excerpt: (§3) Since cancer cells generally divide more rapidly than their normal cell counterpart, cancer cells generally are more susceptible than the normal cells to mitotic inhibitors such as halimide.

[6] = test system: tubulin; assay: Binding to tubulin; conditions: each molecule of halimide to one tubulin molecule
Excerpt: as §3

[7] = test system: multi-drug resistant human colon carcinoma cells; assay: Cross-resistance, multi-drug resistant colon carcinoma cells; format: cell-based
[8] = test system: Bcl-2; assay: Bcl-2 phosphorylation; format: cell-based
[9] = test system: paclitaxel-resistant A2780 cell line with altered tubulin; assay: Collateral sensitivity, paclitaxel-resistant A2780; format: cell-based, human
[10] = test system: P388 mouse leukemia cells; assay: In vivo P388 murine leukemia model, survival
Experimental: The efficacy of halimide was determined in vivo in a mouse P388 model. 1×10^6 P388 mouse leukemia cells were implanted in the intraperitoneal cavity of BALB/cX DBA/2 F1 (CDF1) or C57/BL6XDBA/2 F1 (BDF1) mice (Rose et al., Cancer Res. 43:1504-1510 (1983), which is incorporated herein by reference). Halimide was dissolved in ethanol and diluted with water to a concentration of 2.7 mg/ml. Halimide was injected intraperitoneally or intravenously beginning on the first day after tumor implantation and every day thereafter for five treatments. Increases in life span were reflected by the median survival time of treated (T) versus control (C) groups; T/C was calculated. For the P388 tumor model, a T/C […] 125% is considered to be a significant increase in survival. An optimal dose of 27 mg/kg/injection, ip, produced a T/C of 153%.

C=CC(C)(C)c1nc[nH]c1/C=C1\NC(=O)C(Cc2ccccc2)NC1=O (stereo not shown) [halimide]
IC50 [1]: 1000 nM
inhibition of tubulin polymerization (in words) [2]: inhibited tubulin polymerization
inhibition of tubulin polymerization ([2]; 20 μM halimide, in the presence of GTP): 55%
IC50 ([3]; A2780, 72 hours): 820 nM
IC50 ([3]; Homo sapiens, A2780, 72 h): 800 nM
cell cycle arrest (in words) [4]: arrested the cells at or near the G2/M boundary of the cell cycle
block of the cell in a premitotic stage (in words) [5]: blocked the cell in a premitotic stage within a few minutes; the cells did not divide
effect on mitotic spindle (in words) [5]: disappearance of the mitotic spindle
binding to tubulin (in words) [6]: bound tightly to one tubulin molecule
resistance of multi-drug resistant cells (in words) [7]: not resistant
Bcl-2 hyperphosphorylation (in words) [8]: can hyperphosphorylate Bcl-2
collateral sensitivity (in words) [9]: collaterally sensitive
survival of leukemia bearing mice (in words) ([10]; P388 model): significantly prolongs the survival of leukemia bearing mice
increase in life span ([10]; intraperitoneal injected P388 murine leukemia model): 53%
optimal dose ([10]; ip, P388 model): 27 mg/kg/injection
T/C (median survival time of treated versus control) ([10]; optimal dose 27 mg/kg/injection, ip, daily for five treatments from first day after implantation): 153%
